# “And” between values parts separate entries of the source, which are not always exact repeats. Equal entries are not always repeated. Marks after values point to notes of the source that are not given here.
# Experiment: Toxicity assessment (CTCAE version 4): treatment-related AEs, DLTs, dose reductions, RP2D; phase 1 NANT2015-02
# Description: Five DLs (45, 60, 75, 95 and 115 mg/m^2/dose) were assessed in A1, using a 3 + 3 design. […] Myeloid growth factor was given 24 hours after the completion of topotecan/cyclophosphamide on B2, according to institutional standards. Instructions and hands-on training for a tablet dispersion formulation, validated by Pfizer, was provided to families of patients who could not swallow tablets.
# Initially, this was the only DL planned, but, with a subsequent amendment, a second DL was added to cohort A2 (150 mg). […] Finally, because of the nature of the patients in cohort A2 (which had only two planned DLs), an expansion of up to six additional patients was planned for the highest DL tested with zero or one DLT in six DLT-evaluable patients. Accrual could continue in the expansion cohort as long as none, or at most one, of the patients experienced DLT in the DLT observation period; if two or more patients experienced DLT in the DLT observation period, this would lead to a discussion of the suitability of this dose. The probability of observing […] with DLT, out of six patients, is 0.11, 0.22, 0.47, 0.68 and 0.77 when the true probability of DLT is 0.10, 0.15, 0.25, 0.35 and 0.40, respectfully.
# Patients who were not evaluable for DLT were replaced for dose-escalation purposes. […] The MTD was defined as the highest DL tested at which zero of six or one of six patients experience DLT. After determination of the MTD and review of all toxicities, and provided that other safety considerations were acceptable, the MTD was labeled the RP2D.
# Toxicity was graded according to CTCAE version 4. DLT definitions included only toxicities deemed at least possibly related to therapy. For A1 and A2, hematologic DLT was defined as grade 4 thrombocytopenia or grade 4 neutropenia >7-day duration or a delay in the start of subsequent course by more than 14 days due to ongoing thrombocytopenia or neutropenia, in the absence of bone marrow disease progression seen on clinically indicated bone marrow biopsy (if performed). For cohort B2, hematological DLT is defined as a delay in the start of subsequent course by more than 14 days due to ongoing thrombocytopenia or neutropenia, in the absence of bone marrow disease progression seen on clinically indicated bone marrow biopsy after the first dose reduction of cyclophosphamide and topotecan. Non-hematologic DLT was defined as any non-hematologic toxicity that delayed the start of a subsequent cycle by more than 14 days or any grade ≥3 toxicity, with the exception of the following grade 3 toxicities: nausea, vomiting, anorexia or dehydration resolving to grade ≤2 within 72 hours; increase in hepatic transaminase or electrolyte abnormality resolving eligibility levels within 7 days; diarrhea persisting for less than 72 hours; fever; infection; febrile neutropenia; high cholesterol or triglycerides if responsive (to ≤grade 2) with statin treatment; weight gain; and hyperglycemia if responsive (to <grade 2) with dietary modification.
# [1] = Cohort A1, one line per patient (PID)
# [2] = Cohort A2, neurotoxicity, one line per patient (PID)
# [3] = Cohort A2, one line per patient (PID)
# [4] = patients <18 years, single agent
# [5] = single-agent lorlatinib across all ages, grade 1–4 treatment-related
smiles,measurement,setting,value
"C[C@H]1Oc2cc(cnc2N)-c2c(nn(C)c2C#N)CN(C)C(=O)c2ccc(F)cc21 [Lorlatinib, (10R)-7-amino-12-fluoro-2,10,16-trimethyl-15-oxo-10,15,16,17-tetrahydro-2H-8,4-(metheno)pyrazolo[4,3-h][2,5,11]-benzoxadiazacyclotetradecine-3-carbonitrile]",Nausea: Toxicity Maximum Grade per patient,[1],1
same,Neutrophil count decreased: Toxicity Maximum Grade per patient,[1],2
same,Peripheral sensory neuropathy: Toxicity Maximum Grade per patient,[1],2 and 1
same,Platelet count decreased: Toxicity Maximum Grade per patient,[1],1
same,Tinnitus: Toxicity Maximum Grade per patient,[1],1
same,Vomiting: Toxicity Maximum Grade per patient,[1],1
same,Weight gain: Toxicity Maximum Grade per patient,[1],2 and 3 and 1
same,White blood cell decreased: Toxicity Maximum Grade per patient,[1],1 and 3
same,Patients with DLT in course 1,"Cohort A2, 100 mg",0
same,Patients with DLT in course 2,"Cohort A2, 100 mg",0
same,Patients with DLT in other courses,"Cohort A2, 100 mg",2^c
same,Patients with DLT in course 1,"Cohort A2, 150 mg",1^d
same,Patients with DLT in course 2,"Cohort A2, 150 mg","2^e,f"
same,Patients with DLT in other courses,"Cohort A2, 150 mg","3^e,f,g"
same,Toxicity Maximum Grade per patient: Sinus tachycardia,"Cohort A2, patient PID 8, CTCAE grade",1
same,Neutrophil count decreased,"Cohort A2, grade 1-2, 3, 4 in c8-c10",0 (0) n (%)
same,Hypersomnia (CNS effect),"Cohort A2, grade 1-4 in c5-c8",0 (0)
same,Agitation: Toxicity Maximum Grade per patient,[2],4 and 3 and 1
same,Anxiety: Toxicity Maximum Grade per patient,[2],4 and 3 and 2 and 1
same,Cognitive disturbance: Toxicity Maximum Grade per patient,[2],1 and 2
same,Concentration impairment: Toxicity Maximum Grade per patient,[2],1 and 2 and 3
same,Depression: Toxicity Maximum Grade per patient,[2],1 and 3
same,Hallucinations: Toxicity Maximum Grade per patient,[2],1 and 4
same,Headache: Toxicity Maximum Grade per patient,[2],1
same,Memory impairment: Toxicity Maximum Grade per patient,[2],1 and 2 and 3
same,Alanine aminotransferase increased: Toxicity Maximum Grade per patient,[3],1 and 2
same,Alkaline phosphatase increased: Toxicity Maximum Grade per patient,[3],1
same,Anemia: Toxicity Maximum Grade per patient,[3],3 and 1 and 2
same,Aspartate aminotransferase increased: Toxicity Maximum Grade per patient,[3],1 and 2
same,Cholesterol high: Toxicity Maximum Grade per patient,[3],2 and 3 and 1
same,Creatinine increased: Toxicity Maximum Grade per patient,[3],1 and 2
same,Diarrhea: Toxicity Maximum Grade per patient,[3],2 and 1
same,Edema limbs: Toxicity Maximum Grade per patient,[3],1 and 2
same,Electrocardiogram QT corrected interval prolonged: Toxicity Maximum Grade per patient,[3],1
same,Fatigue: Toxicity Maximum Grade per patient,[3],1
same,Flatulence: Toxicity Maximum Grade per patient,[3],1
same,Gastroesophageal reflux disease: Toxicity Maximum Grade per patient,[3],2 and 1
same,Hyperglycemia: Toxicity Maximum Grade per patient,[3],1 and 3
same,Hypertriglyceridemia: Toxicity Maximum Grade per patient,[3],3 and 2 and 1
same,INCREASED APPETITE: Toxicity Maximum Grade per patient,[3],1 and 2
same,Irritability: Toxicity Maximum Grade per patient,[3],4
same,Lymphocyte count decreased: Toxicity Maximum Grade per patient,[3],4 and 1
same,Nausea: Toxicity Maximum Grade per patient,[3],1 and 2
same,Peripheral sensory neuropathy: Toxicity Maximum Grade per patient,[3],3 and 2 and 1
same,Platelet count decreased: Toxicity Maximum Grade per patient,[3],1 and 2
same,Tinnitus: Toxicity Maximum Grade per patient,[3],1
same,Vomiting: Toxicity Maximum Grade per patient,[3],1
same,Weight gain: Toxicity Maximum Grade per patient,[3],2 and 1 and 3
same,White blood cell decreased: Toxicity Maximum Grade per patient,[3],1 and 2
same,Patients with DLT in course 1,"Cohort B2, DL4 (95 mg/m^2)",0
same,Patients with DLT in course 2,"Cohort B2, DL4 (95 mg/m^2)",0
same,Patients with DLT in other courses,"Cohort B2, DL4 (95 mg/m^2)",0
same,Patients with DLT in course 1,"Cohort B2, DL5 (115 mg/m^2)",0
same,Patients with DLT in course 2,"Cohort B2, DL5 (115 mg/m^2)",0
same,Patients with DLT in other courses,"Cohort B2, DL5 (115 mg/m^2)",1^h
same,Amnesia (CNS effect),"Cohort B2, grade 1-4 in c9-c12",0 (0)
same,Delirium (CNS effect),"Cohort B2, grade 1-4 in c9-c12",0 (0)
same,Delusions (CNS effect),"Cohort B2, grade 1-4 in c9-c12",0 (0)
same,Depressed level of consciousness (CNS effect),"Cohort B2, grade 1-4 in c9-c12",0 (0)
same,Dizziness (CNS effect),"Cohort B2, grade 1-4 in c9-c12",0 (0)
same,Dysarthria (CNS effect),"Cohort B2, grade 1-4 in c9-c12",0 (0)
same,Euphoria (CNS effect),"Cohort B2, grade 1-4 in c9-c12",0 (0)
same,Mania (CNS effect),"Cohort B2, grade 1-4 in c9-c12",0 (0)
same,Paresthesia (CNS effect),"Cohort B2, grade 1-4 in c9-c12",0 (0)
same,Psychosis (CNS effect),"Cohort B2, grade 1-4 in c9-c12",0 (0)
same,Restlessness (CNS effect),"Cohort B2, grade 1-4 in c9-c12",0 (0)
same,Stuttering (CNS effect),"Cohort B2, grade 1-4 in c9-c12",0 (0)
same,Suicidal ideation (CNS effect),"Cohort B2, grade 1-4 in c9-c12",0 (0)
same,incidence of peripheral neuropathy,"adults, single agent",27%
same,RP2D,"in combination with topotecan/cyclophosphamide, patients <18 years, daily (DL5)",115 mg/m^2
same,"hypertriglyceridemia, patients with AE","lorlatinib combined with topotecan/cyclophosphamide, <18 years",89%
same,Grade 1–2 peripheral limb edema,[4],4%
same,incidence of peripheral neuropathy,[4],13%
same,Grade 1–2 peripheral limb edema,"patients ≥18 years, single agent",47%
same,RP2D <18 years relative to the adult RP2D,"single agent, 115 mg/m^2/dose daily",approximately 200%
same,RP2D,"single agent, patients <18 years, daily (DL5)",115 mg/m^2
same,RP2D,"single agent, patients ≥18 years, daily",150 mg
same,"hypercholesterolemia / elevated cholesterol, patients with AE",[5],79%
same,"hypertriglyceridemia, patients with AE",[5],90%
same,"weight gain, patients with AE",[5],87%
same,patients developing grade 2–4 CNS effects,"≥18 years (cohort A2), four of 15",27%
same,patients requiring dose reduction due to toxicities,"≥18 years, 150 mg (n = 10)",50%
